49 compounds from patent US20230109839A1, “THERAPEUTIC AGENT FOR TAUOPATHIES” (SUMITOMO PHARMA CO., LTD., priority 2020, published 2023) can be followed below.

The assay addresses T1, human Nav1.1 (Homo sapiens, UniProt P35498).
T1 construct: host or cells: HEK293
Kind of assay: Amplification of Nav1.1-derived voltage-gated sodium current (Nav1.1 current), automated patch clamp (Test 1). It is filed as cell-based. The essentials:
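HEK293 cells stably expressing human Nav1.1, restricted to cells with >500 pA current, were recorded by automated voltage-clamp patch clamp with a ramp voltage stimulus. Compounds were applied in HEPES-buffered extracellular solution with 1% DMSO. Amplification (%) = 100×(peak or AUC after/before compound)−100.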

Where [1] appears, read: Concentration for evaluation 10 μM, HEK293 cell line stably expressing human Nav1.1.
Where [2] appears, read: Concentration for evaluation 1 μM, HEK293 cell line stably expressing human Nav1.1.
Where [3] appears, read: Concentration for evaluation 3 μM, HEK293 cell line stably expressing human Nav1.1.
[4] abbreviates: concentration for evaluation 1 μM, HEK293 stably expressing human Nav1.1.
[5] abbreviates: Concentration for evaluation 50 μM, HEK293 cell line stably expressing human Nav1.1.

On to `COc1cccc2c1CCN2C(=O)Cn1nc(C2=CCC(C)(C)CC2)ccc1=O` [Example 431], for which the “Nav1.1 current amplification rate (%)” value under setting [1] turned out to be 11%.
As to `Cc1nc2cc(NC(=O)Cn3ncc4ncc(N(C)C5CCCC5)nc43)cnc2s1` [Example 676], under setting [2], the “Nav1.1 current amplification rate (%)” value worked out at 36%.
As for `CC1(C)CC=C(c2ccc(=O)n(CC(=O)Nc3ccn4nccc4c3)n2)CC1` [Example 427], the “Nav1.1 current amplification rate (%)” value under setting [1] was found to be 172%.
On to `CC1CC=C(c2ccc(=O)n(CC(=O)Nc3ccn4cc(C5CC5)nc4c3)n2)CC1` (stereo not shown) [Example 334], for which the “Nav1.1 current amplification rate (%)” value under setting [3] was 255%.
Consider `N#Cc1ccc(NC(=O)Cn2ncc3cnc(N4CCC5(CC5)C(F)(F)C4)nc32)nc1` [Example 830], for which, under setting [4], the “Nav1.1 current amplification rate (%)” value is on record as 54%.
`Cc1nc(N2CCN(C(=O)Cn3nc(C4=CCC(C)CC4)ccc3=O)CC2)no1` (stereo not shown) [Example 406]: the “Nav1.1 current amplification rate (%)” value under setting [5] is 68%.
Turning to `CC1CCN(c2cnc3cnn(CC(=O)Nc4ccc5cncnc5c4)c3n2)CC1` [Example 642], the “Nav1.1 current amplification rate (%)” value under setting [2] turned out to be 252%.
The same measure, in the same setting: as for `CN1CCN(c2cccc3c2CCN3C(=O)Cn2ncc3ncc(N(C)C4CC4)nc32)CC1` [Example 716], the figure is 45%.
For the compound `Cc1nccn1-c1cccc(NC(=O)Cn2nc(N3CCC(C)CC3)ccc2=O)c1` [Example 75], the “Nav1.1 current amplification rate (%)” value under setting [1] was 15%.
In the case of `Cc1ccc(-c2ccc(=O)n(CC(=O)N3CCc4cc(N5CCOCC5)ccc43)n2)cc1` [Example 158], the “Nav1.1 current amplification rate (%)” value under setting [1] turned out to be 122%.
Take `CN(CCC1CC1)c1ncc2cnn(CC(=O)Nc3ccn4ncnc4c3)c2n1` [Example 790]: the “Nav1.1 current amplification rate (%)” value under setting [2] amounted to 31%.
The same measure, in the same setting: as for `CN(CC1CC(F)(F)C1)c1cnc2cnn(CC(=O)Nc3ccn4ncnc4c3)c2n1` [Example 624], the figure is 61%.
`COc1ncc(N2CCN(C(=O)Cn3nc(C4=CCC(C)CC4)ccc3=O)CC2)cc1F` (stereo not shown) [Example 409]: the “Nav1.1 current amplification rate (%)” value under setting [3] came to 244%.
As for `CN(c1cnc2cnn(CC(=O)Nc3ccc4cccnc4c3)c2n1)C1CC1` [Example 711], the “Nav1.1 current amplification rate (%)” value under setting [2] came to 100%.
For the compound `CC1CC=C(c2ccc(=O)n(CC(=O)N3CCc4c3ccnc4-c3cccnc3)n2)CC1` (stereo not shown) [Example 297], the “Nav1.1 current amplification rate (%)” value under setting [2] is reported as 151%.
Turning to `CC1CC=C(c2ccc(=O)n(CC(=O)N3CCc4nc(-c5cn[nH]c5)ccc43)n2)CC1` (stereo not shown) [Example 289], under setting [5], the “Nav1.1 current amplification rate (%)” value is listed as 51%.
Regarding `O=C(Cn1ncc2ccc(N3CCC4(CCC4)CC3)nc21)Nc1ccn2ncnc2c1` [Example 854], the “Nav1.1 current amplification rate (%)” value under setting [4] worked out at 45%.
`CC1(C)CC=C(c2ccc(=O)n(CC(=O)N3CCc4c(C5CN(C(=O)CO)C5)cccc43)n2)CC1` [Example 437]: the “Nav1.1 current amplification rate (%)” value under setting [3] worked out at 582%.
Regarding `CC1CC=C(c2ccc(=O)n(CC(=O)N3CCc4c3ccnc4C3=CCOC3)n2)CC1` (stereo not shown) [Example 284], the “Nav1.1 current amplification rate (%)” value under setting [2] worked out at 91%.
For the compound `N#Cc1ccc(NC(=O)Cn2nc(N3CCC4(CCC4)C3)ccc2=O)cc1` [Example 34], the “Nav1.1 current amplification rate (%)” value under setting [1] turned out to be 311%.
The same measure, in the same setting: next, `CC1CC=C(c2ccc(=O)n(CC(=O)N3CCC(c4ccccn4)CC3)n2)CC1` (stereo not shown) [Example 260]: 13%.
Turning to `O=C(Cn1ncc2ccc(C3=CCCCO3)nc21)Nc1ccn2ccnc2c1` [Example 868], under setting [4], the “Nav1.1 current amplification rate (%)” value came to 19%.
On to `Cc1nccn1-c1ccc(NC(=O)Cn2nc(C3=CCC(C)CC3)ccc2=O)cc1` (stereo not shown) [Example 361], for which the “Nav1.1 current amplification rate (%)” value under setting [2] is given as 101%.
In the case of `CC1CC=C(c2ccc(=O)n(CC(=O)N3CCC(Oc4ccccc4)CC3)n2)CC1` (stereo not shown) [Example 390], the “Nav1.1 current amplification rate (%)” value under setting [1] was found to be 50%.
With `CN(c1cnc2cnn(CC(=O)Nc3ccc4cnccc4n3)c2n1)C1CC1` [Example 721], the “Nav1.1 current amplification rate (%)” value under setting [2] was found to be 17%.
Regarding `O=C(Cn1nc(-c2ccc(C(F)(F)F)nc2)ccc1=O)Nc1ccc2ocnc2c1` [Example 453], the “Nav1.1 current amplification rate (%)” value under setting [1] came to 15%.
Still for that read-out and setting: next, `CN(c1cnc2cnn(CC(=O)Nc3cc4ccccc4nn3)c2n1)C1CC1` [Example 727]: 71%; `COc1cncc(NC(=O)Cn2nc(N3CCC(C)CC3)ccc2=O)c1` [Example 64]: 11%; `Cc1c(N2CCC(C)CC2)nn(CC(=O)Nc2ccc(C#N)cc2)c(=O)c1C` [Example 35]: 301%.
The same measure, in the same setting: next, `CC1CCN(c2ccc(=O)n(CC(=O)Nc3cccc(-c4ncco4)c3)n2)CC1` [Example 78]: 78%.
Turning to `CCC1(C)CCN(c2ncc3cnn(CC(=O)Nc4ccn5ncnc5c4)c3n2)CC1` [Example 789], the “Nav1.1 current amplification rate (%)” value under setting [2] worked out at 36%.
Take `CC1CC=C(c2ccc(=O)n(CC(=O)Nc3ccc4ncccc4c3)n2)CC1` (stereo not shown) [Example 357]: the “Nav1.1 current amplification rate (%)” value under setting [5] is reported as 43%.
Turning to `CC1CC=C(c2ccc(=O)n(CC(=O)N3CCN(c4cncc(F)c4)CC3)n2)CC1` (stereo not shown) [Example 263], the “Nav1.1 current amplification rate (%)” value under setting [1] was found to be 342%.
Consider `CN(c1cnc2cnn(CC(=O)N3CCc4c(-c5ccnn5C)cccc43)c2n1)C1CCC1` [Example 693], for which the “Nav1.1 current amplification rate (%)” value under setting [2] turned out to be 13%.
Turning to `COc1cc(C2=CCC(C)CC2)nn(CC(=O)N2CCN(c3cncc(F)c3)CC2)c1=O` (stereo not shown) [Example 488], the “Nav1.1 current amplification rate (%)” value under setting [1] is on record as 376%.
For `CN(c1cnc2cnn(CC(=O)Nc3cccc(N4CCOCC4)c3F)c2n1)C1CCCC1` [Example 671], the “Nav1.1 current amplification rate (%)” value under setting [2] came out at 34%.
Regarding `CC1CC=C(c2ccc(=O)n(CC(=O)Nc3ccn4cncc4c3)n2)CC1` (stereo not shown) [Example 338], under setting [2], the “Nav1.1 current amplification rate (%)” value is 241%.
For `CC1CCN(c2ccc(=O)n(CC(=O)Nc3cncc(C(F)(F)F)c3)n2)CC1` [Example 61], the “Nav1.1 current amplification rate (%)” value under setting [1] stood at 77%.
Consider `Cc1cccc(F)c1Oc1ncc2cnn(CC(=O)Nc3ccn4ncnc4c3)c2n1` [Example 783], for which the “Nav1.1 current amplification rate (%)” value under setting [3] is reported as 11%.
As for `CC1CCN(c2ccc(=O)n(CC(=O)Nc3ccc(C#N)cc3)n2)C1` (stereo not shown) [Example 19], the “Nav1.1 current amplification rate (%)” value under setting [1] is reported as 98%.
With `O=C(Cn1ncc2ccc(-c3ccc(F)cc3F)nc21)Nc1ccn2ccnc2c1` [Example 865], under setting [4], the “Nav1.1 current amplification rate (%)” value was found to be 14%.
Turning to `O=C(Cn1ncc2cnc(N3CCC4(CC4)C(F)(F)C3)nc21)Nc1ccn2ncnc2c1` [Example 792], the “Nav1.1 current amplification rate (%)” value under setting [2] turned out to be 161%.
With `COc1nc2cc(NC(=O)Cn3nc(N4CCC(C)CC4)ccc3=O)ccc2o1` [Example 99], the “Nav1.1 current amplification rate (%)” value under setting [1] stood at 103%.
`CC1CC=C(c2ccc(=O)n(CC(=O)Nc3cncc(CN(C)C)c3)n2)CC1` (stereo not shown) [Example 365]: the “Nav1.1 current amplification rate (%)” value under setting [5] amounted to 32%.
As for `COc1cc(C2=CCC(C)CC2)nn(CC(=O)Nc2ccn3ccnc3c2)c1=O` (stereo not shown) [Example 463], the “Nav1.1 current amplification rate (%)” value under setting [1] is on record as 218%.
As for `CC1CC=C(c2ccc(=O)n(CC(=O)N3CCN(C4CCCOC4)CC3)n2)CC1` (stereo not shown) [Example 408], the “Nav1.1 current amplification rate (%)” value under setting [5] came out at 80%.
As to `CC(C)(C)C1CCN(c2ccc(=O)n(CC(=O)Nc3ccc(C#N)cc3)n2)CC1` [Example 6], the “Nav1.1 current amplification rate (%)” value under setting [1] turned out to be 35%.
With `CN(c1cnc2cnn(CC(=O)Nc3ccc(Cl)nc3)c2n1)C1CC1` [Example 722], the “Nav1.1 current amplification rate (%)” value under setting [2] amounted to 35%.
Regarding `CC1(C)CC=C(c2ccc(=O)n(CC(=O)N3CCN(c4cncc(F)c4)CC3)n2)CC1` [Example 444], the “Nav1.1 current amplification rate (%)” value under setting [1] is on record as 292%.
